The values that follow come from ChEMBL document CHEMBL1154354, “Synthetic peptides containing a conserved sequence motif of the Id protein family modulate vascular smooth muscle cell phenotype” (Bioorg Med Chem Lett, 2009).

The source made the active and inactive calls. The calls are words filed in the database; no cut-off is given here.

One data set deals with HSMC. The data set is described as follows: (§1) Antiproliferative activity against HSMC expressing Id-protein assessed as reduction in cell growth after 72 hrs by Coulter counting. It counts as functional. To be noted: Homo sapiens.
Data set [1] can be described thus: as §1. Format: functional, Homo sapiens. Set-up: scale not given: the % may be the effect or the level left.
Data set [2] in a line: Drug uptake by HSMC assessed as mean fluorescence index after 72 hrs by FACS. Format: ADME. The note with it: human.
The nature of data set [3]: Perinuclear localization in HSMC after 6 hrs by fluorescence microscopy. Format: ADME, cell-based. To be noted: human.
A short description of data set [4]: Inhibition of PDGF-stimulated HSMC migration after 8 hrs by Boyden chamber assay. Format: functional, Homo sapiens. Set-up: scale not given: the % may be the effect or the level left.
Data set [5] concerns the target T1, DNA-binding protein inhibitor ID-1 (Homo sapiens) (UniProt P41134).
T1 sequence (whole entry): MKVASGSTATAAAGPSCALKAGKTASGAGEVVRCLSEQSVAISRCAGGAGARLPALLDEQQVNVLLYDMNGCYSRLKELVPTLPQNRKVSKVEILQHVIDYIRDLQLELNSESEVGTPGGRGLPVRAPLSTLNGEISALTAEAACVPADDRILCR
The data set is described as follows: Decrease in ID1-protein level in HSMC by Western blotting.

Data set [6] deals with T1, DNA-binding protein inhibitor ID-1 (Homo sapiens). As to the kind of experiment: Binding affinity to ID-HLH domain by CD spectroscoy.
Data set [7] has the same target. As to the kind of experiment: Inhibition of ID1-protein in HSMC assessed as increase in alpha-actin mRNA level by real time PCR.
Data set [8] shares this target. As to the kind of experiment: Inhibition of ID1-protein in HSMC assessed as increase in alpha-actin protein level by Western blotting. (Immunoblotting shows a protein as a band on a membrane.)

Turning to H-KVEILQHVIDYIRDLQ-OH, in the data set on HSMC, the outcome was inactive.

Turning to `CC[C@H](C)[C@H](NC(=O)[C@H](CCC(=O)O)NC(=O)[C@@H](NC(=O)[C@H](CCCCN)NC(=O)[C@@H]1CC[C@H]([C@@H](NC(=O)c2ccccc2)C(=O)N[C@@H](CCCCN)C(=O)N[C@H](C(=O)N[C@@H](CCC(=O)O)C(=O)N[C@H](C(=O)N[C@@H](CC(C)C)C(=O)N[C@@H](CCC(N)=O)C(=O)N[C@@H](Cc2cnc[nH]2)C(=O)N[C@H](C(=O)N[C@H](C(=O)N[C@@H](CC(=O)O)C(=O)N[C@@H](Cc2ccc(O)cc2)C(N)=O)[C@@H](C)CC)C(C)C)[C@@H](C)CC)C(C)C)C1)C(C)C)C(=O)N[C@@H](CC(C)C)C(=O)N[C@@H](CCC(N)=O)C(=O)N[C@@H](Cc1cnc[nH]1)C(=O)N[C@H](C(=O)N[C@H](C(=O)N[C@@H](CC(=O)O)C(=O)N[C@@H](Cc1ccc(O)cc1)C(N)=O)[C@@H](C)CC)C(C)C`, the Activity in [1] came out at 40%.

For `CC[C@H](C)[C@H](NC(=O)[C@H](Cc1ccc(O)cc1)NC(=O)[C@H](CC(=O)O)NC(=O)[C@@H](NC(=O)[C@@H](NC(=O)[C@H](Cc1cnc[nH]1)NC(=O)[C@H](CCC(N)=O)NC(=O)[C@H](CC(C)C)NC(=O)[C@@H](NC(=O)[C@H](CCC(=O)O)NC(=O)[C@@H](NC(=O)[C@H](CCCCN)NC(=O)C1CCC(C(NC(=O)c2ccccc2)C(=O)N[C@@H](CCCCN)C(=O)N[C@H](C(=O)N[C@@H](CCC(=O)O)C(=O)N[C@H](C(=O)N[C@@H](CC(C)C)C(=O)N[C@@H](CCC(N)=O)C(=O)N[C@@H](Cc2cnc[nH]2)C(=O)N[C@H](C(=O)N[C@H](C(=O)N[C@@H](CC(=O)O)C(=O)N[C@@H](Cc2ccc(O)cc2)C(=O)N[C@H](C(=O)N[C@@H](CCCNC(=N)N)C(=O)N[C@@H](CC(C)C)C(=O)N[C@@H](CC(=O)O)C(=O)N[C@@H](CCC(N)=O)C(N)=O)[C@@H](C)CC)[C@@H](C)CC)C(C)C)[C@@H](C)CC)C(C)C)C1)C(C)C)[C@@H](C)CC)C(C)C)[C@@H](C)CC)C(=O)N[C@@H](CCCNC(=N)N)C(=O)N[C@@H](CC(C)C)C(=O)N[C@@H](CC(=O)O)C(=O)N[C@@H](CCC(N)=O)C(N)=O` (stereo partly drawn), the Activity in [1] was found to be 30%.

As for `CC[C@H](C)[C@H](NC(=O)[C@H](CCC(=O)O)NC(=O)[C@@H](NC(=O)[C@H](CCCCN)NC(=O)[C@H]1CC[C@@H]([C@H](NC(=O)c2cccc3c2C(=O)OC32c3ccc(O)cc3Oc3cc(O)ccc32)C(=O)O[C@@H](CCCCN)C(=O)N[C@H](C(=O)N[C@@H](CCC(=O)O)C(=O)N[C@H](C(=O)N[C@@H](CC(C)C)C(=O)N[C@@H](CCC(N)=O)C(=O)N[C@@H](Cc2cnc[nH]2)C(=O)N[C@H](C(=O)N[C@H](C(=O)N[C@@H](CC(=O)O)C(=O)N[C@@H](Cc2ccc(O)cc2)C(=O)N[C@@H](CCCCN)C(=O)N[C@@H](CCCCN)C(=O)N[C@@H](CCCCN)C(N)=O)[C@@H](C)CC)C(C)C)[C@@H](C)CC)C(C)C)C1)C(C)C)C(=O)N[C@@H](CC(C)C)C(=O)N[C@@H](CCC(N)=O)C(=O)N[C@@H](Cc1cnc[nH]1)C(=O)N[C@H](C(=O)N[C@H](C(=O)N[C@@H](CC(=O)O)C(=O)N[C@@H](Cc1ccc(O)cc1)C(=O)N[C@@H](CCCCN)C(=O)N[C@@H](CCCCN)C(=O)N[C@@H](CCCCN)C(N)=O)[C@@H](C)CC)C(C)C`, the Activity result is listed as “Dose-dependent effect” in [2] and “Active” in data set [3].

For the molecule `CC[C@H](C)[C@H](NC(=O)[C@H](CCC(=O)O)NC(=O)[C@@H](NC(=O)[C@H](CCCCN)NC(=O)C1CCC(C(NC(=O)c2ccccc2)C(=O)N[C@@H](CCCCN)C(=O)N[C@H](C(=O)N[C@@H](CCC(=O)O)C(=O)N[C@H](C(=O)N[C@@H](CC(C)C)C(=O)N[C@@H](CCC(N)=O)C(=O)N[C@@H](Cc2cnc[nH]2)C(=O)N[C@H](C(=O)N[C@H](C(=O)N[C@@H](CC(=O)O)C(=O)N[C@@H](Cc2ccc(O)cc2)C(N)=O)[C@@H](C)CC)C(C)C)[C@@H](C)CC)C(C)C)C1)C(C)C)C(=O)N[C@@H](CC(C)C)C(=O)N[C@@H](CCC(N)=O)C(=O)N[C@@H](Cc1cnc[nH]1)C(=O)N[C@H](C(=O)N[C@H](C(=O)N[C@@H](CC(=O)O)C(=O)N[C@@H](Cc1ccc(O)cc1)C(N)=O)[C@@H](C)CC)C(C)C` (stereo partly drawn), the Activity in [1] came to 40%; in [4] it was 20%.

Turning to “Ac-LYDMNGCYSRLKELVPTLPQNRKVSKVEILQHVIDYIRDLQ-NH2”, the Activity entry with HSMC was “Toxic”.

As to `CC[C@H](C)[C@H](NC(=O)[C@H](CCC(=O)O)NC(=O)[C@@H](NC(=O)[C@H](CCCCN)NC(=O)[C@H]1CC[C@@H]([C@H](NC(=O)c2ccccc2)C(=O)N[C@@H](CCCCN)C(=O)N[C@H](C(=O)N[C@@H](CCC(=O)O)C(=O)N[C@H](C(=O)N[C@@H](CC(C)C)C(=O)N[C@@H](CCC(N)=O)C(=O)N[C@@H](Cc2cnc[nH]2)C(=O)N[C@H](C(=O)N[C@H](C(=O)N[C@@H](CC(=O)O)C(=O)N[C@@H](Cc2ccc(O)cc2)C(N)=O)[C@@H](C)CC)C(C)C)[C@@H](C)CC)C(C)C)C1)C(C)C)C(=O)N[C@@H](CC(C)C)C(=O)N[C@@H](CCC(N)=O)C(=O)N[C@@H](Cc1cnc[nH]1)C(=O)N[C@H](C(=O)N[C@H](C(=O)N[C@@H](CC(=O)O)C(=O)N[C@@H](Cc1ccc(O)cc1)C(N)=O)[C@@H](C)CC)C(C)C`, the results for the Activity in [1], in data set [7] and in data set [8] were 40%, “Dose-dependent effect” and “Dose-dependent effect”, respectively. Further, the result in data set [5] was Active. The same molecule gave a K0.5 in data set [6] of 6.6 µM.
